Data taken from patent publication US10947188B2, “Small molecule ferroptosis inducers” (THE TRUSTEES OF COLUMBIA UNIVERSITY IN THE CITY OF NEW YORK, priority 2016, dated 2021).

How the values were obtained:
HT-1080 = experiment: Modulatory profiling: Alamar Blue viability, lethal compound cotreated with death modulator (EC50, AUC); assay type: cell-based; parameters: AUC, modulator HT.3MA / AUC, modulator HT.ALLN / AUC HT.ATA / AUC HT.ActD / AUC HT.BHA / AUC HT.BHT / AUC HT.BocD / AUC HT.CHX / AUC HT.Co2+ / AUC HT.DPQ / AUC HT.EGTA / AUC HT.Lmim / AUC HT.NAD+ / AUC HT.Nec-1 / AUC HT.SP600125 / AUC HT.TLCK / AUC HT.U0126: unit not given beside the values; settings: for AUC HT.ATA: HT-1080, modulator ATA; for AUC HT.ActD: HT-1080, modulator ActD; for AUC HT.BHA: HT-1080, modulator BHA; for AUC HT.BHT: HT-1080, modulator BHT; for AUC HT.BocD: HT-1080, modulator BocD; for AUC HT.CHX: HT-1080, modulator CHX; for AUC HT.Co2+: HT-1080, modulator Co2+; for AUC HT.CspA: HT-1080, modulator CspA; for AUC HT.DPQ: HT-1080, modulator DPQ; for AUC HT.EGTA: HT-1080, modulator EGTA; for AUC HT.Gd3+: HT-1080, modulator Gd3+; for AUC HT.LNAME: HT-1080, modulator LNAME; for AUC HT.Lmim: HT-1080, modulator Lmim; for AUC HT.NAD+: HT-1080, modulator NAD+; for AUC HT.NMMA: HT-1080, modulator NMMA; for HT.atoc (AUC) / HT.bCarotene (AUC) / HT.deferox (AUC) / HT.digoxin (AUC) / HT.trolox (AUC) / HT.zVAD (AUC): HT-1080; for HT.atoc (AUC): modulator atoc; for HT.bCarotene (AUC): modulator bCarotene; for HT.deferox (AUC): modulator deferox; for HT.digoxin (AUC): modulator digoxin; for HT.trolox (AUC): modulator trolox; for HT.zVAD (AUC): modulator zVAD; as to AUC HT.BHA: reference of the scale not given here; as to AUC HT.EGTA: reference of the scale not given here
BJeLR = experiment: as above; assay type: cell-based, human; parameters: AUC, modulator BJ.Gd3+ / AUC, modulator BJ.LNAME / AUC, modulator BJ.Lmin / AUC, modulator BJ.3MA / AUC, modulator BJ.ALLN / AUC, modulator BJ.Boc D / AUC, modulator BJ.CHX / AUC, modulator BJ.Co2+ / AUC, modulator BJ.Nec-1 / AUC, modulator BJ.Pepstatin / AUC, modulator BJ.TLCK / AUC, modulator BJ.atoc / AUC, modulator BJ.trolox / AUC, modulator BJ.zVAD: unit not given beside the values; settings: BJeLR cells, modulatory profile value (AUC); for AUC, modulator BJ.3MA: lethal compound cotreated with modulator 3MA; for AUC, modulator BJ.ALLN: lethal compound cotreated with modulator ALLN; for AUC, modulator BJ.Boc D: lethal compound cotreated with modulator Boc D; for AUC, modulator BJ.CHX: lethal compound cotreated with modulator CHX; for AUC, modulator BJ.Co2+: lethal compound cotreated with modulator Co2+; for AUC, modulator BJ.DPQ: lethal compound cotreated with modulator DPQ; for AUC, modulator BJ.Gd3+: lethal compound cotreated with modulator Gd3+; for AUC, modulator BJ.LNAME: lethal compound cotreated with modulator LNAME; for AUC, modulator BJ.Lmin/NAD+: lethal compound cotreated with modulator Lmin/NAD+; for AUC, modulator BJ.Lmin: lethal compound cotreated with modulator Lmin; for AUC, modulator BJ.NAD+: lethal compound cotreated with modulator NAD+; for AUC, modulator BJ.NMMA: lethal compound cotreated with modulator NMMA; for AUC, modulator BJ.Nec-1: lethal compound cotreated with modulator Nec-1; for AUC, modulator BJ.Pepstatin: lethal compound cotreated with modulator Pepstatin; for AUC, modulator BJ.TLCK: lethal compound cotreated with modulator TLCK; as to AUC, modulator BJ.3MA: reference of the scale not given here; as to AUC, modulator BJ.ALLN: reference of the scale not given here; as to AUC, modulator BJ.Boc D: reference of the scale not given here; as to AUC, modulator BJ.CHX: reference of the scale not given here; as to AUC, modulator BJ.Co2+: reference of the scale not given here; as to AUC, modulator BJ.DPQ: reference of the scale not given here; as to AUC, modulator BJ.Gd3+: reference of the scale not given here; as to AUC, modulator BJ.LNAME: reference of the scale not given here; as to AUC, modulator BJ.NAD+: reference of the scale not given here; as to AUC, modulator BJ.NMMA: reference of the scale not given here; as to AUC, modulator BJ.Nec-1: reference of the scale not given here; as to AUC, modulator BJ.Pepstatin: reference of the scale not given here; as to AUC, modulator BJ.TLCK: reference of the scale not given here

CCC(C(NNC(=O)c1ccc(C(F)(F)F)cc1)c1ccc(C(F)(F)F)cc1)[N+](=O)O (stereo not shown) [CIL88]
AUC HT.ATA (HT-1080): 0.08122 | AUC HT.ActD (HT-1080): −0.03102 | AUC HT.BHA (HT-1080): 0.007109 | AUC HT.BHT (HT-1080): −0.09988 | AUC HT.BocD (HT-1080): 0.02037 | AUC HT.CHX (HT-1080): 0.04478 | AUC HT.Co2+ (HT-1080): 0.01652 | AUC HT.CspA (HT-1080): −0.05842 | AUC HT.DPQ (HT-1080): −0.01431 | AUC HT.EGTA (HT-1080): 0.01878 | AUC HT.Gd3+ (HT-1080): −0.03651 | AUC HT.LNAME (HT-1080): 0.02199 | AUC HT.Lmim (HT-1080): 0.01907 | AUC HT.NAD+ (HT-1080): 0.007478 | AUC HT.NMMA (HT-1080): −0.000615 | HT.atoc (AUC) (HT-1080): 0.07162 | HT.bCarotene (AUC) (HT-1080): 0.02318 | HT.deferox (AUC) (HT-1080): 0.0616 | HT.digoxin (AUC) (HT-1080): 0.05526 | HT.trolox (AUC) (HT-1080): −0.01577 | HT.zVAD (AUC) (HT-1080): 0.04371 | AUC, modulator BJ.3MA (BJeLR): 0.03093 | AUC, modulator BJ.ALLN (BJeLR): −0.1424 | AUC, modulator BJ.Boc D (BJeLR): −0.01445 | AUC, modulator BJ.CHX (BJeLR): 0.2354 | AUC, modulator BJ.Co2+ (BJeLR): 0.05379 | AUC, modulator BJ.DPQ (BJeLR): −0.03608 | AUC, modulator BJ.Gd3+ (BJeLR): −0.03652 | AUC, modulator BJ.LNAME (BJeLR): 0.0201 | AUC, modulator BJ.Lmin/NAD+ (BJeLR): 0.03399 | AUC, modulator BJ.Lmin (BJeLR): −0.01241 | AUC, modulator BJ.NAD+ (BJeLR): −0.03559 | AUC, modulator BJ.NMMA (BJeLR): −0.01217 | AUC, modulator BJ.Nec-1 (BJeLR): −0.03649 | AUC, modulator BJ.Pepstatin (BJeLR): −0.06126 | AUC, modulator BJ.TLCK (BJeLR): 0.0209

CC1=CC(C)(C)Nc2ccc(OC(=O)c3ccco3)cc21 [CIL2]
AUC HT.ATA (HT-1080): 0.03084 | AUC HT.ActD (HT-1080): −0.005228 | AUC HT.BHA (HT-1080): −0.03767 | AUC HT.BHT (HT-1080): −0.1327 | AUC HT.BocD (HT-1080): 0.1395 | AUC HT.CHX (HT-1080): 0.1414 | AUC HT.Co2+ (HT-1080): −0.132 | AUC HT.CspA (HT-1080): 0.01224 | AUC HT.DPQ (HT-1080): −0.003125 | AUC HT.EGTA (HT-1080): −0.005627 | AUC HT.Gd3+ (HT-1080): −0.02304 | AUC HT.LNAME (HT-1080): 0.02625 | AUC HT.Lmim (HT-1080): −0.03013 | AUC HT.NAD+ (HT-1080): 0.04925 | AUC HT.NMMA (HT-1080): −0.03029 | AUC HT.Nec-1 (HT-1080; HT-1080, modulator Nec-1): −0.01273 | AUC HT.Pepstatin (HT-1080; HT-1080, modulator Pepstatin): 0.008816 | AUC HT.SP600125 (HT-1080; HT-1080, modulator SP600125): −0.003684 | AUC HT.TLCK (HT-1080; HT-1080, modulator TLCK): 0.02037 | AUC HT.U0126 (HT-1080; HT-1080, modulator U0126): 0.02089 | HT.atoc (AUC) (HT-1080): 0.04757 | HT.bCarotene (AUC) (HT-1080): −0.02687 | HT.deferox (AUC) (HT-1080): 0.02963 | HT.digoxin (AUC) (HT-1080): −0.01222 | HT.trolox (AUC) (HT-1080): −0.03094 | HT.zVAD (AUC) (HT-1080): −0.02828 | AUC, modulator HT.3MA (HT-1080; HT-1080 cells, lethal compound cotreated with modulator 3MA, modulatory profile value (AUC)): 0.07178 | AUC, modulator HT.ALLN (HT-1080; HT-1080 cells, lethal compound cotreated with modulator ALLN, modulatory profile value (AUC)): 0.05292 | AUC, modulator BJ.3MA (BJeLR): 0.06431 | AUC, modulator BJ.ALLN (BJeLR): −0.03978 | AUC, modulator BJ.Boc D (BJeLR): −0.03808 | AUC, modulator BJ.CHX (BJeLR): 0.03999 | AUC, modulator BJ.Co2+ (BJeLR): −0.1362 | AUC, modulator BJ.DPQ (BJeLR): 0.003929 | AUC, modulator BJ.Gd3+ (BJeLR): 0.01322 | AUC, modulator BJ.LNAME (BJeLR): −0.004423 | AUC, modulator BJ.Lmin/NAD+ (BJeLR): −0.01944 | AUC, modulator BJ.Lmin (BJeLR): 0.008318 | AUC, modulator BJ.NAD+ (BJeLR): 0.03383 | AUC, modulator BJ.NMMA (BJeLR): −0.005234 | AUC, modulator BJ.Nec-1 (BJeLR): 0.0318 | AUC, modulator BJ.Pepstatin (BJeLR): 0.05923 | AUC, modulator BJ.TLCK (BJeLR): 0.06974 | AUC, modulator BJ.atoc (BJeLR; lethal compound cotreated with modulator atoc): −0.01149 | AUC, modulator BJ.trolox (BJeLR; lethal compound cotreated with modulator trolox): 0.001657 | AUC, modulator BJ.zVAD (BJeLR; lethal compound cotreated with modulator zVAD): −0.003959

COC(=O)c1[nH]c2ccc(Br)cc2c1NC(=O)CN1CCN(C2CCCCC2)CC1 [CIL71]
AUC HT.ATA (HT-1080): 0.03481 | AUC HT.ActD (HT-1080): 0.0007018 | AUC HT.BHA (HT-1080): −0.05622 | AUC HT.BHT (HT-1080): −0.05839 | AUC HT.BocD (HT-1080): 0.01089 | AUC HT.CHX (HT-1080): 0.0761 | AUC HT.Co2+ (HT-1080): 0.02342 | AUC HT.CspA (HT-1080): −0.03233 | AUC HT.DPQ (HT-1080): −0.003505 | AUC HT.EGTA (HT-1080): −0.02298 | AUC HT.Gd3+ (HT-1080): −0.01552 | AUC HT.LNAME (HT-1080): 0.02366 | AUC HT.Lmim (HT-1080): −0.002609 | AUC HT.NAD+ (HT-1080): 0.01546 | AUC HT.NMMA (HT-1080): −0.0007859 | HT.atoc (AUC) (HT-1080): 0.03733 | HT.bCarotene (AUC) (HT-1080): −0.01281 | HT.deferox (AUC) (HT-1080): −0.003654 | HT.digoxin (AUC) (HT-1080): −0.01046 | HT.trolox (AUC) (HT-1080): −0.01311 | HT.zVAD (AUC) (HT-1080): 0.01756 | AUC, modulator BJ.3MA (BJeLR): 0.01151 | AUC, modulator BJ.ALLN (BJeLR): −0.05589 | AUC, modulator BJ.Boc D (BJeLR): 0.0152 | AUC, modulator BJ.CHX (BJeLR): −0.06352 | AUC, modulator BJ.Co2+ (BJeLR): 0.02676 | AUC, modulator BJ.DPQ (BJeLR): 0.03052 | AUC, modulator BJ.Gd3+ (BJeLR): 0.01394 | AUC, modulator BJ.LNAME (BJeLR): 0.001204 | AUC, modulator BJ.Lmin/NAD+ (BJeLR): 0.001502 | AUC, modulator BJ.Lmin (BJeLR): −0.02138 | AUC, modulator BJ.NAD+ (BJeLR): −0.03656 | AUC, modulator BJ.NMMA (BJeLR): −0.000118 | AUC, modulator BJ.Nec-1 (BJeLR): −0.02956 | AUC, modulator BJ.Pepstatin (BJeLR): −0.01112 | AUC, modulator BJ.TLCK (BJeLR): 0.01514
